Results as given in PubChem BioAssay AID1259407 (Chemical Carcinogenesis Research Information System (CCRIS), 2018).
The source made the active and inactive calls. No rule for the calls is given here.

Test system: CCRIS mutagenicity, Ames/micronucleus/aberration tests
Assay: CCRIS mutagenicity studies
[1] = Test System: AMES SALMONELLA TYPHIMURIUM, Strain/Indicator: TA98, Metabolic Activation: HAMSTER, LIVER, S-9, AROCLOR 1254 (10%), Method: PREINCUBATION
[2] = Test System: AMES SALMONELLA TYPHIMURIUM, Strain/Indicator: TA98, Metabolic Activation: NONE, Method: PREINCUBATION
[3] = Test System: AMES SALMONELLA TYPHIMURIUM, Strain/Indicator: TA98, Metabolic Activation: RAT, LIVER, S-9, AROCLOR 1254 (10%), Method: PREINCUBATION
[4] = Test System: AMES SALMONELLA TYPHIMURIUM, Strain/Indicator: TA100, Metabolic Activation: HAMSTER, LIVER, S-9, AROCLOR 1254 (10%), Method: PREINCUBATION
[5] = Test System: AMES SALMONELLA TYPHIMURIUM, Strain/Indicator: TA100, Metabolic Activation: NONE, Method: PREINCUBATION
[6] = Test System: AMES SALMONELLA TYPHIMURIUM, Strain/Indicator: TA100, Metabolic Activation: RAT, LIVER, S-9, AROCLOR 1254 (10%), Method: PREINCUBATION
[7] = Test System: AMES SALMONELLA TYPHIMURIUM, Strain/Indicator: TA1535, Metabolic Activation: HAMSTER, LIVER, S-9, AROCLOR 1254 (10%), Method: PREINCUBATION
[8] = Test System: AMES SALMONELLA TYPHIMURIUM, Strain/Indicator: TA1535, Metabolic Activation: NONE, Method: PREINCUBATION
[9] = Test System: AMES SALMONELLA TYPHIMURIUM, Strain/Indicator: TA1535, Metabolic Activation: RAT, LIVER, S-9, AROCLOR 1254 (10%), Method: PREINCUBATION
[10] = Test System: MOUSE LYMPHOMA, Strain/Indicator: L5178Y (TK+/TK-), Metabolic Activation: NONE, Method: SUSPENSION/PLATE
[11] = Test System: AMES SALMONELLA TYPHIMURIUM, Strain/Indicator: TA98, Metabolic Activation: NONE, Method: STANDARD PLATE
[12] = Test System: AMES SALMONELLA TYPHIMURIUM, Strain/Indicator: TA100, Metabolic Activation: NONE, Method: STANDARD PLATE
[13] = Test System: AMES SALMONELLA TYPHIMURIUM, Strain/Indicator: TA1535, Metabolic Activation: NONE, Method: STANDARD PLATE

C=CC(=O)OCCOCCOCCOCCOC(=O)C=C
mutagenic call [1]: inactive; negative
mutagenic call [2]: inactive; negative
mutagenic call [3]: inactive; negative
mutagenic call [4]: inactive; negative
mutagenic call [5]: inactive; negative
mutagenic call [6]: inactive; negative
mutagenic call [7]: inactive; negative
mutagenic call [8]: inactive; negative
mutagenic call [9]: inactive; negative
mutagenic call (Test System: AMES SALMONELLA TYPHIMURIUM, Strain/Indicator: TA1537, Metabolic Activation: HAMSTER, LIVER, S-9, AROCLOR 1254 (10%), Method: PREINCUBATION): inactive; negative
mutagenic call (Test System: AMES SALMONELLA TYPHIMURIUM, Strain/Indicator: TA1537, Metabolic Activation: NONE, Method: PREINCUBATION): inactive; negative
mutagenic call (Test System: AMES SALMONELLA TYPHIMURIUM, Strain/Indicator: TA1537, Metabolic Activation: RAT, LIVER, S-9, AROCLOR 1254 (10%), Method: PREINCUBATION): inactive; negative
mutagenic call (Test System: CHINESE HAMSTER OVARY, Strain/Indicator: CHO-K1-BH4 (HGPRT)/6-THIOGUANINE, Metabolic Activation: NONE, Method: SUSPENSION/PLATE): active; positive
mutagenic call (Test System: CHINESE HAMSTER OVARY, Strain/Indicator: CHO-K1-BH4 (HGPRT), Metabolic Activation: NONE, Method: MONOLAYER): active; positive
mutagenic call (Test System: CHINESE HAMSTER OVARY, Strain/Indicator: CHO-K1-BH4 (HGPRT), Metabolic Activation: NONE, Method: SUSPENSION/PLATE): active; positive
mutagenic call [10]: active; positive

O=C(OCc1ccc(Cl)cc1)c1cccc2cccnc12
mutagenic call [11]: inactive; negative
mutagenic call (Test System: AMES SALMONELLA TYPHIMURIUM, Strain/Indicator: TA98, Metabolic Activation: RAT, LIVER, S-9, AROCLOR 1254, Method: STANDARD PLATE): inactive; negative
mutagenic call [12]: inactive; negative
mutagenic call (Test System: AMES SALMONELLA TYPHIMURIUM, Strain/Indicator: TA100, Metabolic Activation: RAT, LIVER, S-9, AROCLOR 1254, Method: STANDARD PLATE): inactive; negative
mutagenic call [13]: inactive; negative
mutagenic call (Test System: AMES SALMONELLA TYPHIMURIUM, Strain/Indicator: TA1535, Metabolic Activation: RAT, LIVER, S-9, AROCLOR 1254, Method: STANDARD PLATE): inactive; negative
mutagenic call (Test System: AMES SALMONELLA TYPHIMURIUM, Strain/Indicator: TA1537, Metabolic Activation: NONE, Method: STANDARD PLATE): inactive; negative
mutagenic call (Test System: AMES SALMONELLA TYPHIMURIUM, Strain/Indicator: TA1537, Metabolic Activation: RAT, LIVER, S-9, AROCLOR 1254, Method: STANDARD PLATE): inactive; negative

Nc1cc([N+](=O)[O-])cc(Cl)c1O
mutagenic call (Test System: AMES SALMONELLA TYPHIMURIUM, Strain/Indicator: TA97, Metabolic Activation: HAMSTER, LIVER, S-9, AROCLOR 1254 (10%), Method: PREINCUBATION): active; positive
mutagenic call (Test System: AMES SALMONELLA TYPHIMURIUM, Strain/Indicator: TA97, Metabolic Activation: NONE, Method: PREINCUBATION): active; positive
mutagenic call (Test System: AMES SALMONELLA TYPHIMURIUM, Strain/Indicator: TA97, Metabolic Activation: RAT, LIVER, S-9, AROCLOR 1254 (10%), Method: PREINCUBATION): active; positive
mutagenic call [1]: active; positive
mutagenic call [2]: active; positive
mutagenic call [3]: active; positive
mutagenic call [4]: inactive; negative
mutagenic call [5]: active; positive
mutagenic call [6]: active; positive
mutagenic call [7]: inactive; negative
mutagenic call [8]: inactive; negative
mutagenic call [9]: inactive; negative

CC(C)(C)NC(=O)[C@H]1CC[C@H]2[C@@H]3CC=C4C=C(C(=O)O)CC[C@]4(C)[C@H]3CC[C@]12C
mutagenic call (Test System: AMES SALMONELLA TYPHIMURIUM, Strain/Indicator: TA97, Metabolic Activation: NONE, Method: STANDARD PLATE): inactive; negative
mutagenic call (Test System: AMES SALMONELLA TYPHIMURIUM, Strain/Indicator: TA97, Metabolic Activation: RAT LIVER S-9, AROCLOR 1254, Method: PREINCUBATION): inactive; negative
mutagenic call [11]: inactive; negative
mutagenic call (Test System: AMES SALMONELLA TYPHIMURIUM, Strain/Indicator: TA98, Metabolic Activation: RAT LIVER S-9, AROCLOR 1254, Method: PREINCUBATION): inactive; negative
mutagenic call [12]: inactive; negative
mutagenic call (Test System: AMES SALMONELLA TYPHIMURIUM, Strain/Indicator: TA100, Metabolic Activation: RAT LIVER S-9, AROCLOR 1254, Method: PREINCUBATION): inactive; negative
mutagenic call (Test System: AMES SALMONELLA TYPHIMURIUM, Strain/Indicator: TA102, Metabolic Activation: NONE, Method: STANDARD PLATE): inactive; negative
mutagenic call (Test System: AMES SALMONELLA TYPHIMURIUM, Strain/Indicator: TA102, Metabolic Activation: RAT LIVER S-9, AROCLOR 1254, Method: PREINCUBATION): inactive; negative

CN(N=O)C(=O)Nc1ccc(Br)cc1
mutagenic call (End Point: IN VITRO CHROMOSOMAL ABERRATIONS, Test System: CHINESE HAMSTER V79-E CELLS, Metabolic Activation: NONE): active; weakly positive

COc1nncc2ccccc12
mutagenic call [2]: inactive; negative
mutagenic call (Test System: AMES SALMONELLA TYPHIMURIUM, Strain/Indicator: TA98, Metabolic Activation: RAT, LIVER, S-9, PCB, Method: PREINCUBATION): inactive; negative
mutagenic call [5]: inactive; negative
mutagenic call (Test System: AMES SALMONELLA TYPHIMURIUM, Strain/Indicator: TA100, Metabolic Activation: RAT, LIVER, S-9, PCB, Method: PREINCUBATION): inactive; negative

O=c1[nH]cc(N(CCCl)CCCl)c(=O)[nH]1
mutagenic call [13]: active; positive
mutagenic call (Test System: E. COLI, Strain/Indicator: WP2 UVRA, Metabolic Activation: HAMSTER, LIVER, S-9, AROCLOR 1254, Method: STANDARD PLATE): active; positive
mutagenic call (Test System: E. COLI, Strain/Indicator: WP2 UVRA, Metabolic Activation: HAMSTER, LIVER, S-9, Method: STANDARD PLATE): active; positive
mutagenic call (Test System: E. COLI, Strain/Indicator: WP2 UVRA, Metabolic Activation: MOUSE, LIVER, S-9, Method: STANDARD PLATE): active; positive
mutagenic call (Test System: E. COLI, Strain/Indicator: WP2 UVRA, Metabolic Activation: NONE, Method: STANDARD PLATE): active; positive
mutagenic call (Test System: E. COLI, Strain/Indicator: WP2 UVRA, Metabolic Activation: RAT, LIVER, S-9, AROCLOR 1254, Method: STANDARD PLATE): active; positive
mutagenic call (Test System: E. COLI, Strain/Indicator: WP2 UVRA, Metabolic Activation: RAT, LIVER, S-9, Method: STANDARD PLATE): active; positive
mutagenic call [10]: active; positive
mutagenic call (Test System: MOUSE LYMPHOMA, Strain/Indicator: L5178Y (TK+/TK-), Metabolic Activation: RAT, LIVER, S-9, AROCLOR 1254, Method: SUSPENSION/PLATE): active; positive

CCCCOc1cc(C)ccc1C(=O)NOC(C)=O
mutagenic call [12]: active; positive
mutagenic call (Test System: AMES SALMONELLA TYPHIMURIUM, Strain/Indicator: TA100, Metabolic Activation: RAT, S-9, AROCLOR, Method: STANDARD PLATE): active; positive
